{"source": "patent US20220184086A1", "about": "“PLK1 INHIBITORS AND PSA LEVELS IN PROSTATE CANCER” (Cardiff Oncology, Inc., priority 2019, published 2022)", "key": {"[1]": {"assay": "Pharmacokinetics from the prior phase 1 trial", "assay_type": "in vivo", "conditions": "24 mg/m^2 dose", "from_the_text": "This is consistent with the observed downward changes of PSA values for patients shown above."}, "CYP3A4": {"target": "T1, CYP3A4 (Homo sapiens, UniProt P08684)", "T1 construct": "was investigated using human liver microsomes; from tissue; host or cells: human liver microsomes", "T1 sequence (P08684 whole entry)": "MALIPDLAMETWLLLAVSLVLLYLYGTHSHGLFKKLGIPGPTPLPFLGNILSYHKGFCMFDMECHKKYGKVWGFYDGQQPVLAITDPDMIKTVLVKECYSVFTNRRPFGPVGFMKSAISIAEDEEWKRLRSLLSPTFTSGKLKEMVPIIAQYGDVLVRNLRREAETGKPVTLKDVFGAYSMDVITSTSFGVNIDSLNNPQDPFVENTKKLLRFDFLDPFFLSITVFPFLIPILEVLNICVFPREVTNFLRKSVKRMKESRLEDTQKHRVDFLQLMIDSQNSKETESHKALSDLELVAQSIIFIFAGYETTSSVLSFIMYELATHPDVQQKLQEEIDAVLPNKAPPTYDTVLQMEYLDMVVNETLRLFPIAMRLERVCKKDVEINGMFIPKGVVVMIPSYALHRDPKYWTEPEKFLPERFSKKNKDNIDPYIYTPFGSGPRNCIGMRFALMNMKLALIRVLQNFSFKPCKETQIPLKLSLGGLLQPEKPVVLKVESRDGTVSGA", "assay": "Inhibition of human cytochrome P450s, human liver microsomes", "assay_type": "in vitro ADME", "conditions": "mean ± SEM"}, "CYP2C9": {"target": "T2, CYP2C9 (Homo sapiens, UniProt P11712)", "T2 construct": "was investigated using human liver microsomes; from tissue; host or cells: human liver microsomes", "T2 sequence (P11712 whole entry)": "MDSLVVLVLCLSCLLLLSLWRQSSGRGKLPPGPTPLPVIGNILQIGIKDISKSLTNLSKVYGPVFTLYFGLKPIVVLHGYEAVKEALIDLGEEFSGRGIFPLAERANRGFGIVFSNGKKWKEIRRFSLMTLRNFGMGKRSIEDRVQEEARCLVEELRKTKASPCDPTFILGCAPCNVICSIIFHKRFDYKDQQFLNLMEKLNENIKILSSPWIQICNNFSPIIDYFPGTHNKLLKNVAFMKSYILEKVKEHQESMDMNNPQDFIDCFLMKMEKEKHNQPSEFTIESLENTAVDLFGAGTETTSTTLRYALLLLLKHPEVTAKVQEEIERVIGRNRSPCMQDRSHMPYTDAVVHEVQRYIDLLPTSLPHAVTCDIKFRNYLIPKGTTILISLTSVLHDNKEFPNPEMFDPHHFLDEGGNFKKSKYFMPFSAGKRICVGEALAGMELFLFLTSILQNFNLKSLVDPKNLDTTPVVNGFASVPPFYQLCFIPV", "assay": "Inhibition of human cytochrome P450s, human liver microsomes", "assay_type": "in vitro ADME", "conditions": "Diclofenac 4-hydroxylation, mean ± SEM"}, "[2]": {"tested_on": "cell lines, both from solid as well as hematologic tumors", "conditions": "large number of cell lines; cited from earlier work"}, "[3]": {"tested_on": "patients with metastatic castration-resistant prostate cancer (mCRPC)"}, "CYP2D6": {"target": "T3, CYP2D6 (Homo sapiens, UniProt P10635)", "T3 construct": "was investigated using human liver microsomes; from tissue; host or cells: human liver microsomes", "T3 sequence (P10635 whole entry)": "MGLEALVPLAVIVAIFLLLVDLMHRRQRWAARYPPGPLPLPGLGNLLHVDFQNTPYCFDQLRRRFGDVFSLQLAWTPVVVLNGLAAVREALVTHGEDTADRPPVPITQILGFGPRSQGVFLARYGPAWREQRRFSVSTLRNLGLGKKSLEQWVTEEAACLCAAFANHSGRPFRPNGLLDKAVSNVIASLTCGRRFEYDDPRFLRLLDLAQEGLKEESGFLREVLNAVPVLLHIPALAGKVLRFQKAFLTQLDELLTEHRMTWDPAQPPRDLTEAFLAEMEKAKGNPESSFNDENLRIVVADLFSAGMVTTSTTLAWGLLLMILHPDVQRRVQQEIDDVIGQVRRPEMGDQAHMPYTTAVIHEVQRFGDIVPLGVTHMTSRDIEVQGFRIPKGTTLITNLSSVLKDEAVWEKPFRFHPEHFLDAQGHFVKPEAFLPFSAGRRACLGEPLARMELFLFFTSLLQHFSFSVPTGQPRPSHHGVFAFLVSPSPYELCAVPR", "assay": "Inhibition of human cytochrome P450s, human liver microsomes", "assay_type": "in vitro ADME", "conditions": "Bufuralol 1-hydroxylation, mean ± SEM"}, "CYP2C8": {"target": "T4, CYP2C8 (Homo sapiens, UniProt P10632)", "T4 construct": "was investigated using human liver microsomes; from tissue; host or cells: human liver microsomes", "T4 sequence (P10632 1-490)": "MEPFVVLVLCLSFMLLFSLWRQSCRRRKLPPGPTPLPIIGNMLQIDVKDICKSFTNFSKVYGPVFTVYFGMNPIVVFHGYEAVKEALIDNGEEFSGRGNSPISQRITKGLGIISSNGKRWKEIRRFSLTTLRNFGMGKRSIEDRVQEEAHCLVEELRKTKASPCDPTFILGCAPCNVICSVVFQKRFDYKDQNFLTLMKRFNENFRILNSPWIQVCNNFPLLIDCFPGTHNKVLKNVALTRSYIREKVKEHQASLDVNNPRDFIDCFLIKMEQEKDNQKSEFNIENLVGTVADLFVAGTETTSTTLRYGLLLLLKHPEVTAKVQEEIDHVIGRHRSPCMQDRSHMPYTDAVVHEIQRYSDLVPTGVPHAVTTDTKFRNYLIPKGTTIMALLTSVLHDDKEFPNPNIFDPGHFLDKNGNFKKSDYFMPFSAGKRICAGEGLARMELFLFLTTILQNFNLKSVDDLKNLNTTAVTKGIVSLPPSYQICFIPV", "assay": "Inhibition of human cytochrome P450s, human liver microsomes", "assay_type": "in vitro ADME"}, "[4]": {"assay": "Phase 2 study Arm A: absolute neutrophil counts (ANC)", "assay_type": "in vivo, human", "conditions": "7 patients plotted, patients 02-002 and 02-005", "procedure": "To evaluate this further, neutrophil levels were assessed for patients within Arm A of the current trial. Absolute neutrophil counts (ANC) are plotted in FIG. 3 for 7 patients, with ANC 1.5 indicated as the threshold for Grade 2 (CTCAE version 4.03). Two patients experienced ≥Grade 2 neutropenia after the first cycle of treatment (02-002 and 02-005)."}, "xenograft tumor": {"tested_on": "xenograft tumor", "conditions": "mice, oral administration, well tolerated doses; cited from earlier work"}, "[5]": {"conditions": "rodent and nonrodent species; cited from earlier work"}, "CYP2C19": {"target": "T5, CYP2C19 (Homo sapiens, UniProt P33261)", "T5 construct": "was investigated using human liver microsomes; from tissue; host or cells: human liver microsomes", "T5 sequence (P33261 whole entry)": "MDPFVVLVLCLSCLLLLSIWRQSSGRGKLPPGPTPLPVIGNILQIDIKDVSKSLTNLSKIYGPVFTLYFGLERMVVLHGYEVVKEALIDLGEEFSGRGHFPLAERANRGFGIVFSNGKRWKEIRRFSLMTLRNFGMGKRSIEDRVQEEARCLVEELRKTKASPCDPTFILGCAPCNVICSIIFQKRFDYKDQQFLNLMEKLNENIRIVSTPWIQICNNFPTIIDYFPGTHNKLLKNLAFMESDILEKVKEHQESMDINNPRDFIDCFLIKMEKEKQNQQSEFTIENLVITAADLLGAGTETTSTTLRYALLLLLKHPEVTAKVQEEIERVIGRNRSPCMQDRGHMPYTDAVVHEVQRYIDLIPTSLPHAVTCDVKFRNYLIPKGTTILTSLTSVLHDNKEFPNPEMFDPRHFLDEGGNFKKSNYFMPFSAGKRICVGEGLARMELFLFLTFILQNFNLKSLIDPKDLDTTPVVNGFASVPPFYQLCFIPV", "assay": "Inhibition of human cytochrome P450s, human liver microsomes", "assay_type": "in vitro ADME", "conditions": "Mephenytoin 4-hydroxylation, mean ± SEM"}, "[6]": {"tested_on": "adult patients with advanced/metastatic solid tumors", "conditions": "cited from earlier work"}, "CYP1A2": {"target": "T6, CYP1A2 (Homo sapiens, UniProt P05177)", "T6 construct": "was investigated using human liver microsomes; from tissue; host or cells: human liver microsomes", "T6 sequence (P05177 1-516)": "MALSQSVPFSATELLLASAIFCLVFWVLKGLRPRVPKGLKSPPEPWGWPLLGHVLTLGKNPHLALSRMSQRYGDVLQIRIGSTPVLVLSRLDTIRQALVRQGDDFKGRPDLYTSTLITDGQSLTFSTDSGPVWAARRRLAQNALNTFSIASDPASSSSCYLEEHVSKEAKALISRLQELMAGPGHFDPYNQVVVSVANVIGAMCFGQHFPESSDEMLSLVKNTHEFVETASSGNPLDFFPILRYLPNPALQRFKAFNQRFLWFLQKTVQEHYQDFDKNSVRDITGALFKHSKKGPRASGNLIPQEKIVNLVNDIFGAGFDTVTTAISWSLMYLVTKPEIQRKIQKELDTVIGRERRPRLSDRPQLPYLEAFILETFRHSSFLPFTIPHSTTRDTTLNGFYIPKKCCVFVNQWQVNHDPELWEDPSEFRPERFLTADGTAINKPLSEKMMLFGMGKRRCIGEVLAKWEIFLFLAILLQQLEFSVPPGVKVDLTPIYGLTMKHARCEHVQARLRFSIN", "assay": "Inhibition of human cytochrome P450s, human liver microsomes", "assay_type": "in vitro ADME"}, "[7]": {"tested_on": "circulating tumor cells (CTC)", "assay": "Phase 2 study: circulating tumor cell (CTC) evaluation", "assay_type": "in vivo, human", "conditions": "for CTC Fold Change: C1D1 to C5D1; for CTC Count (C5D1): onvansertib+abiraterone", "procedure": "Circulating tumor cell (CTC) evaluation, reported as favorable or unfavorable (<5 vs.≥CTC/7.5 ml of blood), is shown in FIG. 8. At baseline, 25 (78%) patients had unfavorable CTC count with median of 19 CTC/7.5 ml. Ten of the unfavorable patients were re-analyzed after 12 weeks of treatment."}, "[8]": {"conditions": "ten patients with unfavorable baseline CTC re-analyzed after 12 weeks of treatment"}}, "note": "Where two headings read alike, the source gives them in different places."}
{"compound": "CN1CCN(c2ccc(OC(F)(F)F)c(Nc3ncc4c(n3)-c3c(c(C(N)=O)nn3CCO)CC4)c2)CC1", "note": "[onvansertib, 1-(2-hydroxyethyl)-8-{[5-(4-methylpiperazin-1-yl)-2-(trifluoromethoxy)phenyl]amino}-4,5-dihydro-1H-pyrazolo[4,3-h]quinazoline-3-carboxamide]", "values": [{"measurement": "time at which the amount of onvansertib is below the 10×IC50 value", "setting": "[1]", "result": 160, "unit": "h"}, {"measurement": "concentration at 290 h", "setting": "[1]; human, plasma, oral, 0.1 ng/ml is the limit of quantitation, read-out: drug concentrations at 290 hours (˜12 days)", "result": "< 0.1", "unit": "ng/mL"}, {"measurement": "IC50", "setting": "CYP3A4; Midazolam l′-hydroxylation", "result": "66.2 ± 4", "unit": "µM"}, {"measurement": "IC50", "setting": "CYP3A4; Testosterone 6β-hydroxylation", "result": "52.7 ± 9.8", "unit": "µM"}, {"measurement": "IC50", "setting": "CYP2C9", "result": "20.4 ± 3.2", "unit": "µM"}, {"measurement": "activity in proliferation assays", "setting": "[2]", "result": "low nanomolar activity"}, {"measurement": "patients with disease stabilization after 5 or more treatment cycles", "setting": "[3]; 03-013 (Arm A) and 01-024 (Arm B)", "result": "two"}, {"measurement": "initial PSA stabilization or decrease in AR-V7+ subjects", "setting": "[3]; AR-V7+ subjects (n=4), August 2019", "result": "all"}, {"measurement": "AR-V7 positive patients achieving the primary endpoint of stable disease", "setting": "[3]; AR-V7 positive patients who completed 3 months of treatment", "result": "Three of 4"}, {"measurement": "initial PSA stabilization or decrease in AR-V7 positive patients", "setting": "[3]; AR-V7 positive patients who completed at least 1 cycle (n=5)", "result": "all"}, {"measurement": "patients achieving the efficacy endpoint (PSA stabilization)", "setting": "[3]; Arm A (n=14)", "result": 5, "unit": "patients"}, {"measurement": "patients remaining on treatment for >1 year", "setting": "[3]; Arm A (n=14)", "result": 2, "unit": "patients"}, {"measurement": "patients with SD or PR at 12 weeks", "setting": "[3]; Arm A (n=14), 8 of 14", "result": 57, "unit": "%"}, {"measurement": "patients who have or had progression-free survival", "setting": "[3]; Arm A, 3 of 14", "result": 21, "unit": "%"}, {"measurement": "PSA values at day 8 relative to baseline", "setting": "[3]; Arm A, after dosing on days 1-5, with abiraterone and prednisone, then increase until next cycle", "result": "go down"}, {"measurement": "subjects with initial disease stabilization or reduction, based on PSA levels", "setting": "[3]; Arm B", "result": 3, "unit": "subjects"}, {"measurement": "patients achieving the efficacy endpoint (PSA stabilization)", "setting": "[3]; Arm B (n=5)", "result": 3, "unit": "patients"}, {"measurement": "patients with SD at 12 weeks", "setting": "[3]; Arm B (n=5), 4 of 5", "result": 80, "unit": "%"}, {"measurement": "patients who have or had progression-free survival of >7 months", "setting": "[3]; Arm B, 3 of 5", "result": 60, "unit": "%"}, {"measurement": "tumor shrinkage by CT scan at the end of the study", "setting": "[3]; Patient 03-013 (AR-V7), Arm A", "result": "~30", "unit": "%"}, {"measurement": "PSA level increase after onvansertib was added", "setting": "[3]; Patient 03-013 (AR-V7), Arm A, 84 days, with abiraterone/prednisone", "result": 8.4, "unit": "%"}, {"measurement": "PSA level above the baseline (C1D1) PSA level", "setting": "[3]; Patient 03-013, Arm A, into the fifth cycle", "result": "below 25%"}, {"measurement": "patients with decreases in PSA levels", "setting": "[3]; after 1 cycle of treatment with addition of onvansertib, eighteen out of 25", "result": 72, "unit": "%"}, {"measurement": "AR-V7+ patients who met the primary efficacy endpoint", "setting": "[3]; of AR-V7+ subjects (n=4), 03-013, 01-024", "result": "Two"}, {"measurement": "patients confirmed AR-V7+ that have shown a PSA response", "setting": "[3]; patients who completed 4 cycles (12 weeks), onvansertib added to abiraterone", "result": "2 of 6"}, {"measurement": "IC50", "setting": "CYP2D6", "result": "26.8 ± 5.4", "unit": "µM"}, {"measurement": "IC50", "setting": "CYP2C8", "result": "20.2 ± 1.6", "unit": "µM"}, {"measurement": "patients with ≥Grade 2 neutropenia after the first cycle", "setting": "[4]", "result": "Two"}, {"measurement": "xenograft tumor growth", "setting": "xenograft tumor", "result": "inhibits xenograft tumor growth"}, {"measurement": "oral bioavailability", "setting": "[5]", "result": "good oral bioavailability"}, {"measurement": "IC50", "setting": "CYP2C19", "result": "36.9 ± 15.7", "unit": "µM"}, {"measurement": "DLTs observed", "setting": "[6]; 36 mg/m^2/day, four patients treated", "result": "two"}, {"measurement": "patients who developed DLTs", "setting": "[6]; 48 mg/m^2/day", "result": "2 of 3"}, {"measurement": "dose-limiting toxicities (DLT)", "setting": "[6]; first 3 dose levels (6, 12, and 24 mg/m^2/day)", "result": "No DLTs"}, {"measurement": "outcome of the one evaluable patient with prostate cancer", "setting": "[6]; in vivo", "result": "disease progression"}, {"measurement": "primary toxicities", "setting": "[6]; in vivo", "result": "thrombocytopenia and neutropenia"}, {"measurement": "best observed treatment response: disease stabilization", "setting": "[6]; of the 16 evaluable patients", "result": 5, "unit": "patients"}, {"measurement": "maximum tolerated dose (MTD)", "setting": "[6]; oral, 5 consecutive days every 3 weeks", "result": 24, "unit": "mg/m^2/day"}, {"measurement": "recovery of hematologic toxicities", "setting": "[6]; thrombocytopenia and neutropenia, reversible", "result": "≤ 3", "unit": "weeks"}, {"measurement": "inhibitory effects against CYP1A2", "setting": "CYP1A2", "result": "No significant inhibitory effects"}, {"measurement": "IC50", "setting": "CYP1A2; Tacrine 1-hydroxylation", "result": "> 100", "unit": "µM"}, {"measurement": "CTC Fold Change", "setting": "[7]; patient 02-003", "result": 17.9}, {"measurement": "CTC Count (C5D1)", "setting": "[7]; patient 02-003, CTC count at C1D1 4.4", "result": 78.6}, {"measurement": "CTC Fold Change", "setting": "[7]; patient 02-007", "result": 6.9}, {"measurement": "CTC Count (C5D1)", "setting": "[7]; patient 02-007, CTC count at C1D1 2.5", "result": 17.3}, {"measurement": "CTC Fold Change", "setting": "[7]; patient 03-004", "result": 3.0}, {"measurement": "CTC Count (C5D1)", "setting": "[7]; patient 03-004, CTC count at C1D1 0.4", "result": 1.2}, {"measurement": "CTC Fold Change", "setting": "[7]; patient 03-009", "result": 1.5}, {"measurement": "CTC Count (C5D1)", "setting": "[7]; patient 03-009, CTC count at C1D1 3.7", "result": 5.4}, {"measurement": "CTC Fold Change", "setting": "[7]; patient 03-013", "result": 1.4}, {"measurement": "CTC Count (C5D1)", "setting": "[7]; patient 03-013, CTC count at C1D1 2.2", "result": 3.0}, {"measurement": "median time on treatment", "setting": "[7]; patients with decrease CTC (n=5), to-date", "result": 7, "unit": "months"}, {"measurement": "median time on treatment", "setting": "[7]; patients with increase CTC (n=5)", "result": 5, "unit": "months"}, {"measurement": "patients converted from unfavorable to favorable CTC level (<5 CTC/7.5 ml)", "setting": "[7]; [8]", "result": 40, "unit": "%"}, {"measurement": "patients with a ≥80% CTC decrease", "setting": "[7]; [8]", "result": 50, "unit": "%"}, {"measurement": "patients with no detectable CTC", "setting": "[7]; [8]", "result": 30, "unit": "%"}]}
